Tests used:
[1] = test system: S6 Ribosomal Protein phosphorylation Ser235/236 in TSC1 null mouse embryo fibroblast (MEF) cells; experiment: Reverse protein array assay, S6 Ribosomal Protein phosphorylation Ser235/236 in TSC1 null MEF cells; format: cell-based; details: 1 h, pS6 ribosomal protein Ser235/236, 60 minutes incubation, read-out: p-S6 IC50
Outline: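 TSC1−/− MEFs, seeded and held ≥20 h at 37 °C/5% CO2, were exposed to 8-step serial compound dilutions (0.02% DMSO final; DMSO vehicle control) for 60 min at 37 °C. Cells were then lysed on ice for 10 min and lysates spotted onto reverse protein array chips.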

PI3K gamma = molecular target: T1, PI3K gamma (Homo sapiens, UniProt P48736); experiment: PI3K gamma kinase assay (Kinase-Glo luminescence); format: biochemical
T1 construct: His tag (C); made in house; host or cells: baculovirus (pVL1393); Tn5 or TiniPro insect cells; construct from Roger Williams lab, MRC LMB
Outline: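 PI3Kγ (150 nM) reaction run 120 min at room temperature with phosphatidylinositol substrate (10 μg/mL) and ATP (1 μM) in Tris pH 7.5 buffer containing MgCl2, NaCl, CHAPS and DTT. Remaining ATP detected by Kinase-Glo luminescence; 8 concentrations per compound, IC50 from 4-parameter curve fitting.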

T1 sequence (P48736 144-1102 limits assumed): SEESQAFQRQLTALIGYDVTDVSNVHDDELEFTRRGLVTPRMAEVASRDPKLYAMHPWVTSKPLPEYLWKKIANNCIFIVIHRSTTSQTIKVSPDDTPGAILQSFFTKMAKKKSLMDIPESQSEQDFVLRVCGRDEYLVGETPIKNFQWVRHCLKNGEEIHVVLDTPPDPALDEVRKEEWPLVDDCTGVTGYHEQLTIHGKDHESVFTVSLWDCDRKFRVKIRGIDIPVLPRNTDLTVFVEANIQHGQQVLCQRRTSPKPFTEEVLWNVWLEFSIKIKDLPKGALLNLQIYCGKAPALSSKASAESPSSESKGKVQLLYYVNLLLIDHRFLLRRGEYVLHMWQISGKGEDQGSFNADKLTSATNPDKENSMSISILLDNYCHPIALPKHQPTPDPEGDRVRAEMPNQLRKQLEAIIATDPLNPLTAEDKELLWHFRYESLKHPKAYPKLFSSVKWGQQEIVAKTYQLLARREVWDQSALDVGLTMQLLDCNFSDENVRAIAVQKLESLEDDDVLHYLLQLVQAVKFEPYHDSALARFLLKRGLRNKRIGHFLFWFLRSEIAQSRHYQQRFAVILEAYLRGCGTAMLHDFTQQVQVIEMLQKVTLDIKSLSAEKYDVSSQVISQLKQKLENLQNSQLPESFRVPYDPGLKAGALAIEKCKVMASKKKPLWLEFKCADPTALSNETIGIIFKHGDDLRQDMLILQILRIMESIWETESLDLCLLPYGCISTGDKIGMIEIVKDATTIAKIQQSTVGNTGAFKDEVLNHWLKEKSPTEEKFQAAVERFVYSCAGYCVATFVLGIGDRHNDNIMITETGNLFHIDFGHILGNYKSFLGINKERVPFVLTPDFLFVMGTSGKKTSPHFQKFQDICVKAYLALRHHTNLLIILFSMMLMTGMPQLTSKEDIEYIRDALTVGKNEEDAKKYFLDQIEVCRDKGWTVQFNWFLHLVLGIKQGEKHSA

| IC50 (PI3K gamma) [nM] | Structure (SMILES) | IC50 [1] [nM] |
| --- | --- | --- |
| 75 | Cc1nn(C)cc1-n1c(=O)n(C)c2cnc3ccc(-c4ccc(-c5ncc[nH]5)cc4)cc3c21 [Example 77, 1-(1,3-Dimethyl-1H-pyrazol-4-yl)-8-[4-(1H-imidazol-2-yl)-phenyl]-3-methyl-1,3-dihydro-imidazo[4,5-c]quinolin-2-one] | 5 |
| 142 | Cc1nn(C)cc1-n1c(=S)n(C)c2cnc3ccc(-c4cccnc4)cc3c21 [Example 128.1, 1-(1,3-Dimethyl-1H-pyrazol-4-yl)-3-methyl-8-pyridin-3-yl-1,3-dihydro-imidazo[4,5-c]quinoline-2-thione] | 9 |
| 117 | COc1ccc(-c2ccc3ncc4c(c3c2)n(-c2cn(C)nc2C)c(=S)n4C)cc1OC [Example 128.2, 8-(3,4-Dimethoxy-phenyl)-1-(1,3-dimethyl-1H-pyrazol-4-yl)-3-methyl-1,3-dihydro-imidazo[4,5-c]quinoline-2-thione] | 1 |
| 145 | CCn1cc(-n2c(=O)n(C)c3cnc4ccc(-c5ccc(OC)c(OC)c5)nc4c32)c(C)n1 [Example 254, 8-(3,4-Dimethoxy-phenyl)-1-(1-ethyl-3-methyl-1H-pyrazol-4-yl)-3-methyl-1,3-dihydro-1,3,5,9-tetraaza-cyclopenta[a]naphthalen-2-one] | 58 |
